According to patent US6787318B1, “Assay for evaluating the therapeutic effectiveness of agents in reducing Alzheimer's disease pathology” (Roskamp Research Institute, LLC, priority 1999, dated 2004):

Assays:
[1] = system: primary cultured cortical neurons; test: Primary cultured microglia-mediated neuronal cell injury (micrographs, 51Cr release, LDH release); format: cell-based, mice; conditions: primary cultured microglia with cortical neurons
Text: CD45 positive cells (brown) are microglia, while neurofilament L-staining cells (red) are neurons. […] Results shown are from one of three independent experiments with similar results; FIG. 2E is a graph showing primary cultured microglia-mediated neuronal cell injury as evidenced by ^51Cr release. Data are reported as mean ^51Cr release values±1 SEM and n=9 for each condition presented. […] N=9 for each condition presented.
Having shown that Aβ peptides activate microglia through the CD40 pathway, it was then investigated whether activation of Aβ-pretreated microglia by ligation of CD40 could mediate neuronal cell injury (23,24).

IL-1β = test: Human IL-1β release ELISA, HAEC with or without CD40 ligation; format: cell-based
Protocol: To examine if endothelial CD40 would be functional, cultured HAEC were plated at 5×10^4 cells/well in 6-well tissue culture plates (Nunc-Immuno™ Plate, Denmark) and incubated at 37° C. with human CD40L recombinant protein (CD40L, 0.5 ug/mL, kindly provided by Dr. Jean-Yves Bonnefoy, Glaxo Institute for Molecular Biology, Geneva) in fresh cultured media for eight hours, and cell-free supernatants were collected for IL-1β release assay. The assay for human IL-1β was performed in strict accordance with the manufacturer's instruction using the human Predicta™ IL-1β Kit (Genzyme). Absorbance at 450 nm was measured using a microplate spectrophotometer (SPECTRAmax 250, Molecular Devices, Sunnyvale, Calif.).
A second group of cells was subjected to these same treatments and incubated with CD40L ([…]) for eight hours following the initial 48 hour treatment period. IL-1β release was then quantified using a human IL-1β ELISA kit as described in materials and methods.

HAEC = test: Cytotoxicity in HAEC, LDH release assay; format: cell-based, human; conditions: 500 nM, 48 hours
Protocol: Previous reports have shown that overexpression of amyloid precursor protein or exogenous addition of Aβ peptides can have cytotoxic effects on cultured endothelial cells.
In order to determine if ligation of endothelial CD40 could result in production of pro-inflammatory cytokines, IL-1β was measured following treatment with IFN-γ or Aβ peptides. […] There was not observe a significant induction of endothelial cell death by LDH release assay between treatment groups during the time course examined by IL-1β release assay (by One-way ANOVA, F(6,41)=0.322, p=0.921), supporting the hypothesis that stimulation of the CD40 pathway in endothelial cells results in an early pro-inflammatory cascade which later promotes cell injury, rather than induce cytotoxicity acutely.

Aβ1-42: amyloid β peptide 1-42, freshly solubilized
neuronal degeneration / injury in micrographs [1]: not detectable | IL-1β release following CD40 ligation (IL-1β; 48 hour pre-treatment, then CD40L for eight hours): synergistic effect | IL-1β release in the absence of CD40L stimulation (IL-1β; Aβ 500 nM, IFN-γ 10 U/mL, 48 hours): not sufficient to elicit IL-1β | cell injury, LDH release (HAEC): no significant induction of cell injury
